Assay results as given in ChEMBL document CHEMBL2412957, “Synthesis and SAR of 4-aminocyclopentapyrrolidines as orally active N-type calcium channel inhibitors for inflammatory and neuropathic pain” (Bioorg Med Chem Lett, 2013).
≈ marks a conversion by molar mass, not a printed value.

Assays:
[1] = biological target: Voltage-gated inwardly rectifying potassium channel KCNH2 (Homo sapiens, UniProt Q12809); experiment: Inhibition of dofetilide binding to human ERG
[2] = Solubility of the compound by chemiluminescent nitrogen detection method
[3] = Metabolic stability in human liver microsomes assessed as compound remaining after 30 mins; type: ADME, Microsome; settings: read-out: Stability
[4] = Metabolic stability in rat liver microsomes assessed as compound remaining after 30 mins; type: ADME, Microsome; settings: read-out: Stability
[5] = biological target: Voltage-dependent N-type calcium channel subunit alpha-1B (Homo sapiens, UniProt Q00975); experiment: Inhibition of N-type Cav2.2 channel (unknown origin) by FLIPR assay
[6] = Ratio of drug level brain to plasma in rat at 3 umol/kg, ip after 30 mins; type: ADME, organism-based; settings: read-out: BPR
[7] = biological target: T1, Voltage-dependent N-type calcium channel subunit alpha-1B (Rattus norvegicus, UniProt Q02294); experiment: Inhibition of rat N-type Cav2.2 channel expressed in HEK293 cells under hyperpolarized condition by whole cell patch-clamp manual electrophysiology assay; type: cell-based
[8] = biological target: T1, Voltage-dependent N-type calcium channel subunit alpha-1B; experiment: Inhibition of rat N-type Cav2.2 channel expressed in HEK293 cells under depolarized condition by whole cell patch-clamp manual electrophysiology assay; type: cell-based
Rattus norvegicus [9] = species: Rattus norvegicus; experiment: Analgesic activity in rat monoiodoaceate-induced osteoarthritis pain model; type: functional
[10] = Oral bioavailability in rat at 5 umol/kg; type: ADME, organism-based; settings: in vivo
[11] = Half life in rat at 5 umol/kg, iv and 5 umol/kg, po; type: ADME, organism-based; settings: in vivo
[12] = AUC in rat at 5 umol/kg, po; type: ADME, organism-based; settings: plasma
[13] = Volume of distribution at steady state in rat at 5 umol/kg, iv and 5 umol/kg, po; type: ADME, organism-based; settings: in vivo, read-out: Vdss
Rattus norvegicus [14] = species: Rattus norvegicus; experiment: Analgesic activity in rat chronic constriction injury-induced neuropathic pain model; type: functional
[15] = Plasma clearance in rat at 5 umol/kg, iv and 5 umol/kg, po; type: ADME, organism-based
[16] = Volume of distribution at steady state in rat at 5 umol/kg, iv and 30 umol/kg, po; type: ADME, organism-based; settings: in vivo, read-out: Vdss
[17] = Half life in rat at 5 umol/kg, iv and 30 umol/kg, po; type: ADME, organism-based; settings: in vivo
[18] = (§1) Oral bioavailability in rat at 30 umol/kg; type: ADME, organism-based; settings: in vivo, 30 umol/kg
[19] = (§2) Plasma clearance in rat at 5 umol/kg, iv and 30 umol/kg, po; type: ADME, organism-based; settings: plasma
[20] = (§3) AUC in rat at 30 umol/kg, po; type: ADME, organism-based, Plasma; settings: plasma, 30 umol/kg
[21] = biological target: Voltage-gated L-type calcium channel (Rattus norvegicus, UniProt P22002+Q02485+P27732); experiment: Inhibition of L-type calcium channel in rat aorta ring tissue assessed as relaxation of tissue; type: tissue-based
Rattus norvegicus [22] = experiment: as §3; type: ADME, organism-based, Plasma; settings: in vivo
Rattus norvegicus [23] = experiment: as §1; type: ADME, organism-based; settings: in vivo, at 30 µmol/kg
Rattus norvegicus [24] = experiment: Cardiotoxicity in anesthetized rat assessed as decrease in mean arterial pressure at plasma concentration of 1.57 ug/mL; type: toxicity, organism-based
Rattus norvegicus [25] = experiment: as §2; type: ADME, organism-based; settings: in vivo
[26] = Ratio of drug level brain to plasma in po dosed rat after 60 mins; type: ADME, organism-based; settings: read-out: BPR
Rattus norvegicus [27] = species: Rattus norvegicus; experiment: Analgesic activity in rat capsaicin secondary mechanical hyperalgesia pain model; type: functional

Voltage-dependent N-type calcium channel subunit alpha-1B (Homo sapiens, UniProt Q00975), sequence (Q00975 whole entry): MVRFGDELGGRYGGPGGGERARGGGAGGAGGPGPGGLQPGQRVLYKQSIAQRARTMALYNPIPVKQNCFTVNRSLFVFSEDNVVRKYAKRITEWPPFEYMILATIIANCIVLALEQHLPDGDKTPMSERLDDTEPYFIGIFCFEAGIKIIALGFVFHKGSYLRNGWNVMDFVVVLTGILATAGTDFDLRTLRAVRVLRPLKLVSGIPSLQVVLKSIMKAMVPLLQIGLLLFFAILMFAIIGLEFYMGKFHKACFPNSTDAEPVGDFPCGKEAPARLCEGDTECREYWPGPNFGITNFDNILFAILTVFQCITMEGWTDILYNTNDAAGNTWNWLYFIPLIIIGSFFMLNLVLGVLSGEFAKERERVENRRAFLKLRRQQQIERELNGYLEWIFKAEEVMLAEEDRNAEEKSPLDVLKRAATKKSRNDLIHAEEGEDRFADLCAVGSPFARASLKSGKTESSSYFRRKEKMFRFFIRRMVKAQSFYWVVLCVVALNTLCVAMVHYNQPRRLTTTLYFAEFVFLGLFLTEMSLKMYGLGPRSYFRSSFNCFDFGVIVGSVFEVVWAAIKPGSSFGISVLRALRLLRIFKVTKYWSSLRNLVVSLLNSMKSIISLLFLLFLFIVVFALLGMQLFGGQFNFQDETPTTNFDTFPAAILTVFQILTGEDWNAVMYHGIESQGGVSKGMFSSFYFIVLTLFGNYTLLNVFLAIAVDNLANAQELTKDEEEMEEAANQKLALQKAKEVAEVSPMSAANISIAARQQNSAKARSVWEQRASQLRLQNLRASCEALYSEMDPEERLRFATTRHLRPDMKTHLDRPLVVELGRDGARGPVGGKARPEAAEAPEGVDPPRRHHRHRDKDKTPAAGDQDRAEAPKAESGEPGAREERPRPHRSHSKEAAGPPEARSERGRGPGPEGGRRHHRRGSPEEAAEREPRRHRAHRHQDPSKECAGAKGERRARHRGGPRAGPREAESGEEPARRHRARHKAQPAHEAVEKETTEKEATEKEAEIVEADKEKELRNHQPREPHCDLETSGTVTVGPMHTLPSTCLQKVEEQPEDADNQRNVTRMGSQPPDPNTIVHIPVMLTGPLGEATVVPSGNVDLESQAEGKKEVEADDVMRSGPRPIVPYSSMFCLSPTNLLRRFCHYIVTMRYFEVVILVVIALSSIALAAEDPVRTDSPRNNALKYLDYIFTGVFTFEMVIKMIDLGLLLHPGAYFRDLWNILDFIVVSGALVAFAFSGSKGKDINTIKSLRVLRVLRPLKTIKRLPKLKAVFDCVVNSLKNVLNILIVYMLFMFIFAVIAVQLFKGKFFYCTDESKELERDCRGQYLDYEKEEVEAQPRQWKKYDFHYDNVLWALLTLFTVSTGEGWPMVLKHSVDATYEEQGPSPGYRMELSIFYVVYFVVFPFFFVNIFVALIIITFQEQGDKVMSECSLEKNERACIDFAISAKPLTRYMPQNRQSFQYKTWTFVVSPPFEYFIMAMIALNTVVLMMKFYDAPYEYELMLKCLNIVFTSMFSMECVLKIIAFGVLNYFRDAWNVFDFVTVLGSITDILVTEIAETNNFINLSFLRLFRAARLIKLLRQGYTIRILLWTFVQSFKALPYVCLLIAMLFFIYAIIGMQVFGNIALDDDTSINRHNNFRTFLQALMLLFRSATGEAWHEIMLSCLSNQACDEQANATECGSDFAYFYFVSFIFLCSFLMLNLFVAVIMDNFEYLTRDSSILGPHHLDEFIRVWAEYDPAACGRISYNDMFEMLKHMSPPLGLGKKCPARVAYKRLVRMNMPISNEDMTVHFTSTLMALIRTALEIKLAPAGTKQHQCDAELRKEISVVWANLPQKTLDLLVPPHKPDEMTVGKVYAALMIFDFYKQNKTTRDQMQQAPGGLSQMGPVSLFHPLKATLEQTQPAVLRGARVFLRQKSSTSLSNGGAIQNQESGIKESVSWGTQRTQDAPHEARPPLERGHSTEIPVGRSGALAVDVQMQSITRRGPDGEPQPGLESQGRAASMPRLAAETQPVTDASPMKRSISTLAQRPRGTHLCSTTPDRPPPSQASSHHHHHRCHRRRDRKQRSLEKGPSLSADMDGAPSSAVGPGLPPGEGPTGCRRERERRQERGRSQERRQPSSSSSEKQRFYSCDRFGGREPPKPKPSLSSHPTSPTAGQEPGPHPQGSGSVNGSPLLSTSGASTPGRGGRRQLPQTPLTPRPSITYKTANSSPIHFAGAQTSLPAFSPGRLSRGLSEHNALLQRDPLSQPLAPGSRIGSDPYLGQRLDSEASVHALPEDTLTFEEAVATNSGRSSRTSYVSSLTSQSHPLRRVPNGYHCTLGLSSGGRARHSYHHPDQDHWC
T1 sequence (Q02294 whole entry): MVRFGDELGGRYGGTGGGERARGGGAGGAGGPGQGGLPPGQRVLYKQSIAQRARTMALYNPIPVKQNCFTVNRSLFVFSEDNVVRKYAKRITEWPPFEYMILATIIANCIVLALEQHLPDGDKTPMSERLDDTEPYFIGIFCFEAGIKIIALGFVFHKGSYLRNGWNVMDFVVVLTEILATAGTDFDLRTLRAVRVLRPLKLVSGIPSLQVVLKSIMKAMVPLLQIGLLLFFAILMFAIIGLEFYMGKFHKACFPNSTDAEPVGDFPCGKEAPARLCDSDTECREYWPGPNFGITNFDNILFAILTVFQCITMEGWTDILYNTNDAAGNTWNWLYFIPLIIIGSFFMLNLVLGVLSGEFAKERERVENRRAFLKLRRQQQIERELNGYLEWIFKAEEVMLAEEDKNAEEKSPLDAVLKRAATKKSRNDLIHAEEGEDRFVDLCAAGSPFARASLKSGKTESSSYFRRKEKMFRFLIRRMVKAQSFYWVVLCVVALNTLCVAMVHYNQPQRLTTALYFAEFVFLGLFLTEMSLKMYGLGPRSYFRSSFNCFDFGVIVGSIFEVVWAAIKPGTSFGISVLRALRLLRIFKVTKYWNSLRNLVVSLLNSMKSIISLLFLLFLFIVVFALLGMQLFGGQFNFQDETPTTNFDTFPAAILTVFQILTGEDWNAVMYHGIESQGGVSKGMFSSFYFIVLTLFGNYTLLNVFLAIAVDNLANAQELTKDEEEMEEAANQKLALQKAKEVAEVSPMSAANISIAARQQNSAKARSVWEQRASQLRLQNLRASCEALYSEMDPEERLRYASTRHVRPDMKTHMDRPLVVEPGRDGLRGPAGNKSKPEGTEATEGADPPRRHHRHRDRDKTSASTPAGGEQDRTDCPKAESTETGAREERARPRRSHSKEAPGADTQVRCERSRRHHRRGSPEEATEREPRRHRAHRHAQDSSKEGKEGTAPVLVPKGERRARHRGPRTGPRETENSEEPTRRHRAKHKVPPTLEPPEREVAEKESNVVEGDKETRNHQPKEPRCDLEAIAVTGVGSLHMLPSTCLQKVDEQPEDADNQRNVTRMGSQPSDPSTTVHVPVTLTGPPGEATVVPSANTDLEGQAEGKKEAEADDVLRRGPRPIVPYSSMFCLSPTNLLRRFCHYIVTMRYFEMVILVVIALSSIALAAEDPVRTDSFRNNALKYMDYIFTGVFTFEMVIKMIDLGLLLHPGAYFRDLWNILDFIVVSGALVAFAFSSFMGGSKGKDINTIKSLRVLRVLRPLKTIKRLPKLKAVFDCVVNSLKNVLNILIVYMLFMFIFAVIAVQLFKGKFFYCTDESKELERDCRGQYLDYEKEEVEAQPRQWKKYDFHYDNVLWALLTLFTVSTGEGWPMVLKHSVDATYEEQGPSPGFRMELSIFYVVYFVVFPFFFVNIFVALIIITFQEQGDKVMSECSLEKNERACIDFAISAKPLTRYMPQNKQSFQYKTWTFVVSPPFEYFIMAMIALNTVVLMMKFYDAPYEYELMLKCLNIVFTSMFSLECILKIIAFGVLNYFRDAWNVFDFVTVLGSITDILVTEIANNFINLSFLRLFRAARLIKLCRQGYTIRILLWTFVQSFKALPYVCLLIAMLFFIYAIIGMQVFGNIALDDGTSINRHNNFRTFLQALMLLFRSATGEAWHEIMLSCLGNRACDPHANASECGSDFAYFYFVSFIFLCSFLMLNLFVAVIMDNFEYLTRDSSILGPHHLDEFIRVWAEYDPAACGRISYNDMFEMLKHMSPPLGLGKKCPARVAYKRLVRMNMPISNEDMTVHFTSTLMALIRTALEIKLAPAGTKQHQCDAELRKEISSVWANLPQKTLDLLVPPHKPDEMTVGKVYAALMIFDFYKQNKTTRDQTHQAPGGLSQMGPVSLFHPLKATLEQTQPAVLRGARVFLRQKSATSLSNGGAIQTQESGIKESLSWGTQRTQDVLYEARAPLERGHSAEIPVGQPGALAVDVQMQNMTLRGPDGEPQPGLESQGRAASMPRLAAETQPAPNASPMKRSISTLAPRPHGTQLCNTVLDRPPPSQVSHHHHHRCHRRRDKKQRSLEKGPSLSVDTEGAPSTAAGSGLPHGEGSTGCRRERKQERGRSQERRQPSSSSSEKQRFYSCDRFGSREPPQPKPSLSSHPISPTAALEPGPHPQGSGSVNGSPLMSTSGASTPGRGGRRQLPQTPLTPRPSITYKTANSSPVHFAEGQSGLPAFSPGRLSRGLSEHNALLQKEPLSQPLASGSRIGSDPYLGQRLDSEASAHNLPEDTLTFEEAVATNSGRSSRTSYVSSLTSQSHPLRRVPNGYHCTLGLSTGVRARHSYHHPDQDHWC

SMILES	solubility [2]	remaining at 0.5 h [3]	remaining at 0.5 h [4]	IC50 ([5]; read-out: IC50)	IC50 ([5]; read-out: pIC50 (converted))	also measured
CCN[C@@H](CC(C)(C)C)C(=O)N[C@H]1CC[C@@H]2CN(S(=O)(=O)c3ccc(C(F)(F)F)cc3)C[C@@H]21	20 µM (≈ 9.79 µg/mL)	22.8%	89.2%	490 nM	575 nM	
CN[C@@H](CC(C)C)C(=O)N[C@H]1CC[C@@H]2CN(c3cccc(C(F)(F)F)c3)C[C@@H]21	56 µM (≈ 22.3 µg/mL)	73%	81%		1170 nM	
CN[C@@H](CC(C)C)C(=O)N[C@H]1CC[C@@H]2CN(c3ccc(C(F)(F)F)cc3)C[C@@H]21	33 µM (≈ 13.1 µg/mL)	> 85%	> 85%	1240 nM		Kp at 0.5 h [6]: 16.5; IC50 [7]: 4400 nM; IC50 [8]: 1000 nM; ED50 (Rattus norvegicus [9]): 3 mg/kg; bioavailability [10]: 83%; half-life [11]: 15.4 h; AUC [12]: 799 ng·h/mL; Vd [13]: 26.5 L/kg; ED50 (Rattus norvegicus [14]): 10 mg/kg; clearance [15]: 21.7 mL/min/kg
CN[C@@H](CC(C)C)C(=O)N[C@H]1CC[C@@H]2CN(c3ccc(OC(F)(F)F)cc3)C[C@@H]21	31 µM (≈ 12.8 µg/mL)	> 85%	66%	5150 nM		
CN[C@@H](CC(C)C)C(=O)N[C@H]1CC[C@@H]2CN(S(=O)(=O)c3ccc(C(F)(F)F)cc3)C[C@@H]21	77 µM (≈ 35.5 µg/mL)	54.4%	69.9%	750 nM	851 nM	bioavailability [10]: 50%; half-life [11]: 3.3 h; AUC [12]: 422 ng·h/mL; Vd [13]: 13.2 L/kg; clearance [15]: 46.7 mL/min/kg
CCC[C@H](NC)C(=O)N[C@H]1CC[C@@H]2CN(S(=O)(=O)c3ccc(C(F)(F)F)cc3)C[C@@H]21	97 µM (≈ 43.4 µg/mL)	74.6%	83.4%	960 nM		
CCCC[C@H](NC)C(=O)N[C@H]1CC[C@@H]2CN(S(=O)(=O)c3ccc(C(F)(F)F)cc3)C[C@@H]21	38 µM (≈ 17.5 µg/mL)	51.1%	66.4%	750 nM		
CC(C)(C)[C@H](N)C(=O)N[C@H]1CC[C@@H]2CN(S(=O)(=O)c3ccc(C(F)(F)F)cc3)C[C@@H]21	94 µM (≈ 42.1 µg/mL)	75.6%	77.1%	1510 nM		
CC(C)(C)C[C@H](N)C(=O)N[C@H]1CC[C@@H]2CN(S(=O)(=O)c3ccc(C(F)(F)F)cc3)C[C@@H]21	68 µM (≈ 31.4 µg/mL)	41.8%	79.4%	870 nM	933 nM	
CN[C@@H](CC(C)(C)C)C(=O)N[C@H]1CC[C@@H]2CN(S(=O)(=O)c3ccc(C(F)(F)F)cc3)C[C@@H]21	76 µM (≈ 36.1 µg/mL)	33.6%	66.5%	790 nM	832 nM	

Now from value to molecule, other results behind:

solubility [2]	remaining at 0.5 h [3]	remaining at 0.5 h [4]	IC50 ([5]; read-out: IC50)	IC50 ([5]; read-out: pIC50 (converted))	SMILES	also measured
< 3 µM	0.5%	0.1%			O=C(N[C@H]1CC[C@H]2CN(Cc3cccc(C(F)(F)F)c3)C[C@H]21)C(C1CCCCC1)C1CCCCC1	Ki [1]: 690 nM
< 3 µM	1.2%	2.6%	1870 nM		O=C(N[C@@H]1CC[C@H]2CN(Cc3cccc(C(F)(F)F)c3)C[C@H]21)C(C1CCCCC1)C1CCCCC1	Ki [1]: 9520 nM
67 µM (≈ 27.6 µg/mL)	19.4%	60.7%	1890 nM		CN[C@@H](CC(C)C)C(=O)N[C@@H]1CC[C@H]2CN(Cc3cccc(C(F)(F)F)c3)C[C@H]21	
80 µM (≈ 38 µg/mL)	23.6%	42.1%	2840 nM		CC(C)C[C@H](NS(C)(=O)=O)C(=O)N[C@@H]1CC[C@H]2CN(Cc3cccc(C(F)(F)F)c3)C[C@H]21	
44 µM (≈ 19.7 µg/mL)	45%	10.3%	1060 nM		CC(C)C[C@H](N)C(=O)N[C@@H]1CC[C@H]2CN(S(=O)(=O)c3cccc(C(F)(F)F)c3)C[C@H]21	Vd [16]: 15 L/kg; half-life [17]: 0.5 h; bioavailability [18]: 0%; clearance [19]: 568 mL/min/kg
75 µM (≈ 34.6 µg/mL)	25.5%	26.5%	520 nM	631 nM	CN[C@@H](CC(C)C)C(=O)N[C@@H]1CC[C@H]2CN(S(=O)(=O)c3cccc(C(F)(F)F)c3)C[C@H]21	Vd [16]: 9.2 L/kg; AUC [20]: 405 ng·h/mL; half-life [17]: 2 h; bioavailability [18]: 10.5%; clearance [19]: 60 mL/min/kg
27 µM (≈ 12.5 µg/mL)	50.5%	47.3%	770 nM	851 nM	CN[C@@H](CC(C)C)C(=O)N[C@@H]1CC[C@H]2CN(S(=O)(=O)c3ccc(C(F)(F)F)cc3)C[C@H]21	bioavailability [10]: 21%; half-life [11]: 2.1 h; AUC [12]: 221 ng·h/mL; Vd [13]: 5.6 L/kg; clearance [15]: 36.7 mL/min/kg
79 µM (≈ 37.6 µg/mL)	0.1%	1%	450 nM		CC(C)C[C@@H](C(=O)N[C@@H]1CC[C@H]2CN(S(=O)(=O)c3cccc(C(F)(F)F)c3)C[C@H]21)N(C)C	Vd [16]: 5.2 L/kg; AUC [20]: 35 ng·h/mL; half-life [17]: 1.4 h; bioavailability [18]: 0.8%; clearance [19]: 56.7 mL/min/kg
	26.8%	26.2%	860 nM		CN[C@@H](Cc1ccccc1)C(=O)N[C@H]1CC[C@@H]2CN(S(=O)(=O)c3ccc(C(F)(F)F)cc3)C[C@@H]21	
	79.6%	64.3%			CC(C)N[C@@H](CC(C)(C)C)C(=O)N[C@H]1CC[C@@H]2CN(S(=O)(=O)c3ccc(C(F)(F)F)cc3)C[C@@H]21	Vd [16]: 7.1 L/kg; IC50 [21]: 2600 nM; AUC (Rattus norvegicus [22]): 240 ng·h/mL; IC50 [7]: 340 nM; half-life [17]: 2.7 h; F (Rattus norvegicus [23]): 46.7%; IC50 [8]: 340 nM; ED50 (Rattus norvegicus [9]): 8 mg/kg; Activity (Rattus norvegicus [24]): Toxic; CL (Rattus norvegicus [25]): 33 mL/min/kg; ED50 (Rattus norvegicus [14]): 32 mg/kg; Kp at 1 h [26]: 0.9; ED50 (Rattus norvegicus [27]): 13 mg/kg
